The text below walks through data of US20230303570A1, “KINASE INHIBITORS AND USES THEREOF” (ABM Therapeutics Corporation, priority 2020, published 2023).

Structures are written as SMILES.

In one data set the target is HPK1 (MAP4K1) (Homo sapiens, UniProt Q92918). Nature of the data set: HPK1 (MAP4K1) kinase Lantha screen assay. Format: biochemical. A digest of the protocol: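 Recombinant MAP4K1 preincubated 10 min with compound (6-point dilution, duplicates) in 50 mM HEPES pH 7.5, 10 mM MgCl2, then reacted with Fluorescein-PKC substrate and ATP for 90 min at room temperature. Antibody detection solution stopped reaction; after 60 min, TR-FRET read at ex 340 nm, em 520/495 nm.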
Sequence of HPK1 (MAP4K1) (Q92918 whole entry, species assumed): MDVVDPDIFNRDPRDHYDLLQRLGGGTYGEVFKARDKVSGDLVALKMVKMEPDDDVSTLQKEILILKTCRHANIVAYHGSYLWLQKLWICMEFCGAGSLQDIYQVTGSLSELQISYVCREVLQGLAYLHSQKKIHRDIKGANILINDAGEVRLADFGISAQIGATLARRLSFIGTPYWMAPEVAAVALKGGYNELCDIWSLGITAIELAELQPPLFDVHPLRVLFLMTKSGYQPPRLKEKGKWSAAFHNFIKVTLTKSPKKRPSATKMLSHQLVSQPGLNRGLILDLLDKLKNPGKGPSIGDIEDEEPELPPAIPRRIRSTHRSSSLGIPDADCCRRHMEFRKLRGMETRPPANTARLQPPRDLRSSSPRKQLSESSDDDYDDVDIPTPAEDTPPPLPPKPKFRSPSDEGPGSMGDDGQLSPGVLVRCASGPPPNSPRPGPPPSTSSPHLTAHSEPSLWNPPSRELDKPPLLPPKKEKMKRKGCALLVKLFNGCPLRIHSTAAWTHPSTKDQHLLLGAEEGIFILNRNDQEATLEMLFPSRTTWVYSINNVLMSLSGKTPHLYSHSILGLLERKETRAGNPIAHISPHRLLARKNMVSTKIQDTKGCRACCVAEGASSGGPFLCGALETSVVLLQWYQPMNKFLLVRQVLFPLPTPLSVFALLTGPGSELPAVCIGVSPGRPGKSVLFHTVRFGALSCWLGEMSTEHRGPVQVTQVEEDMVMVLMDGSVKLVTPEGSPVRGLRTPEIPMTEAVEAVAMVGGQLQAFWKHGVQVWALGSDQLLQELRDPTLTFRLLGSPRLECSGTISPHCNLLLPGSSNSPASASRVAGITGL

In the next data set the target is c-Kit (Homo sapiens, UniProt P10721). The data set is described as follows: cKit kinase mobility shift assay. Format: biochemical. A digest of the protocol:
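Human kinase with DTT in 50 mM HEPES pH 7.5 and 0.01% Triton X-100 was preincubated with compound for 10 min at room temperature, using a 5-point dilution in duplicate. FAM-labeled peptide, ATP and MgCl2 were then added and the reaction run at 28° C. Reactions were stopped with EDTA buffer and peptide conversion was read by Caliper mobility shift.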

Another data set deals with RET (Homo sapiens, UniProt P07949). Nature of the data set: RET kinase mobility shift assay. The data set is classed as biochemical. The protocol:
(§1) The effect of the compounds on the activity of cKit, RET and AXL kinases were assessed by Mobility shift assay. • 1. 1× kinase base buffer and stop buffer for testing kinases were prepared • 1-1) 1× Kinase base buffer (50 mM HEPES, pH 7.5, 0.01% Triton X-100) • 1-2) Stop buffer (100 mM HEPES, pH 7.5, 0.015% Brij-35, 0.2% Coating Reagent #3, 50 mM EDTA) • 2. Compound and assay plate preparation: the compound was diluted to 50× of the final desired highest inhibitor concentration in reaction by 100% DMSO. 100 μl of this compound dilution was transferred to a well in a 96-well plate. For example, if the highest desired concentration was 5 μM, then 250 μM of compound DMSO solution was prepared in this step. For all compounds, the compound was serially diluted by transferring 10 μl to 70 μl of 100 DMSO in the next well and so forth for a total of 5 concentrations. 100 μl of 100% DMSO was added to two empty wells for no compound control and no enzyme control in the same 96-well plate. The plate was labeled as source plate. The intermediate plate was prepared by transferring 10 μl of compound from source plate to a new 96-well plate as the intermediate plate, adding 90 μl of 1× kinase buffer to each well of the intermediate plate, mixing the compounds in intermediate plate for 10 min on shaker. 5 μl of each well from the 96-well intermediate plate were transferred to a 384-well plate in duplicates. For example, A1 of the 96-well plate was transferred to A1 and A2 of the 384-well plate. A2 of the 96-well plate was transferred to A3 and A4 of the 384-well plate, and so on. • 4. Kinase reaction: The assay plate already contained 5 μl of compound in 10% DMSO. A 2.5× enzyme solution was prepared by adding kinases (cKit, RET, or AXL) and DTT in 1× kinase base buffer. 2.5× enzyme solution was transferred to the assay plate (by adding 10 μl of 2.5× enzyme solution to each well of the 384-well assay plate). The plate was incubated at room temperature for 10 min. 2.5× peptide solution was prepared by adding FAM-labeled peptide, ATP, MgCl2 in the 1× kinase base buffer. 2.5× peptide solution was added to the assay plate by adding 10 μl of 2.5× peptide solution to each well of the 384-well assay plate. The plate was incubated at 28° C. for the specified period of time. 25 μl of stop buffer was added to stop reaction. Data was collected on Caliper.

Data set [1] addresses T1, PAK1 (Homo sapiens, UniProt Q13153). Nature of the data set: In vitro kinase assay, PAK1 (Caliper EZ Reader conversion). The data set is classed as biochemical. Further details: purchased Carna Biosciences. A digest of the protocol:
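Human PAK1 was preincubated with compound (6 concentrations, 4-fold dilutions) for 10 min at room temperature, then reacted with substrate mix for 30 and 60 min. Substrate conversion was read by Caliper mobility shift. IC50 was fitted by variable-slope log(inhibitor)–response, normalised to FRAX597 and buffer controls.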

A further data set deals with P-glycoprotein (MDR1). The data set is described as follows: in vitro. To be noted: dog, MDCK-MDR1.
A further data set has as its target T2, Axl (Homo sapiens, UniProt P30530).
T2 sequence (P30530 26-894): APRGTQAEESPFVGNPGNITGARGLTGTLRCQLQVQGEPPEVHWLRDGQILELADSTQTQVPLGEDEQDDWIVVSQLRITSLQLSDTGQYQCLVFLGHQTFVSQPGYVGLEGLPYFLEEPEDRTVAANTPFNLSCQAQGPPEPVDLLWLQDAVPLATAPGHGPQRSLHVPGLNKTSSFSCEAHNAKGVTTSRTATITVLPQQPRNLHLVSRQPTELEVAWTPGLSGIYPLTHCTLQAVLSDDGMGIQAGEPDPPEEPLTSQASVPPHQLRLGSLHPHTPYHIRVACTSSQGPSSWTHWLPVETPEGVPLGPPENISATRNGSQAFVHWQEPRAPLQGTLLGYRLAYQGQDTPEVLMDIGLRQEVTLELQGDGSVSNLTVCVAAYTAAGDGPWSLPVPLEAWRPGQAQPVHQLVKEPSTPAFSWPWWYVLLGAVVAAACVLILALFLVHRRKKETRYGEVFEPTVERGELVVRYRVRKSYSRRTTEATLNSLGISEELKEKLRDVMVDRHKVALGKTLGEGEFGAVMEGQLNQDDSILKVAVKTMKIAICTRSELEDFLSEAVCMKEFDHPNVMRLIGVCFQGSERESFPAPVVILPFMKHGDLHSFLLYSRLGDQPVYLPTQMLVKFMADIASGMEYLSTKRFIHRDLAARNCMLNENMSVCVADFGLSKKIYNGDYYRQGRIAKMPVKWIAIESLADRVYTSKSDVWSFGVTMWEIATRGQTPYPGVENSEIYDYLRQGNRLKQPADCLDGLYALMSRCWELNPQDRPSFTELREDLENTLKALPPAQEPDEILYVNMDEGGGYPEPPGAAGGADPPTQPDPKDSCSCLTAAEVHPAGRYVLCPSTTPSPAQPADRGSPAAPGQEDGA
Nature of the data set: AXL kinase mobility shift assay. The data set is classed as biochemical. The protocol:
as §1

Data set [2] deals with T1, PAK1. To be noted: background statement on known PAK1 inhibitors; result in words only; cited from earlier work.

Sequence of RET (P07949 29-1114, species assumed): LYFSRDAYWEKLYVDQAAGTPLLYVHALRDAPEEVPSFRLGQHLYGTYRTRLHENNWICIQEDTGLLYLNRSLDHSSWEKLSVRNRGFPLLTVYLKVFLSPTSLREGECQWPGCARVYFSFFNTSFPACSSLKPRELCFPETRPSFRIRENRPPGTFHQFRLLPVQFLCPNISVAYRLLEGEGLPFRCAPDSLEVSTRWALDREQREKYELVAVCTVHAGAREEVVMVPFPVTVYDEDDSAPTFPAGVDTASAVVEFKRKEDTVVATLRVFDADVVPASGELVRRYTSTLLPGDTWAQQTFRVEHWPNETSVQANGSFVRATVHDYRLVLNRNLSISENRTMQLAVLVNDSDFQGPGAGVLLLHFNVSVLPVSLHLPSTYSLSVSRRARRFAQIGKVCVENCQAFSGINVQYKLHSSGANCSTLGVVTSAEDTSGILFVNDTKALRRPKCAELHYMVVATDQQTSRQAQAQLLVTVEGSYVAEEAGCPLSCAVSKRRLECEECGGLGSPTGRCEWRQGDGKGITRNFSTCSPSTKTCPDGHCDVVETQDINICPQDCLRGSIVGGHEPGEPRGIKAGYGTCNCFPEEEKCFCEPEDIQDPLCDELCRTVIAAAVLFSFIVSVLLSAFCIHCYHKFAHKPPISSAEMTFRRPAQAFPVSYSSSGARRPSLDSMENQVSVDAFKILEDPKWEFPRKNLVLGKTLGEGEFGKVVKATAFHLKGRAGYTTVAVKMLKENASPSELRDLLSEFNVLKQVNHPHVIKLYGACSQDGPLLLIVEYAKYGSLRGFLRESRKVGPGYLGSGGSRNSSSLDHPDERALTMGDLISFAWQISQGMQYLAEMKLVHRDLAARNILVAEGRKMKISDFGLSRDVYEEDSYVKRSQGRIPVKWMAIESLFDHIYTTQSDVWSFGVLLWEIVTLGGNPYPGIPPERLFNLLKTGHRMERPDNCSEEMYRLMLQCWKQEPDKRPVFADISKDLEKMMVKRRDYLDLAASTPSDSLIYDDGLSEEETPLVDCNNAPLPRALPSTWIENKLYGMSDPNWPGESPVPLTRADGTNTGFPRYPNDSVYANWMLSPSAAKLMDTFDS
Sequence of c-Kit (P10721 26-976): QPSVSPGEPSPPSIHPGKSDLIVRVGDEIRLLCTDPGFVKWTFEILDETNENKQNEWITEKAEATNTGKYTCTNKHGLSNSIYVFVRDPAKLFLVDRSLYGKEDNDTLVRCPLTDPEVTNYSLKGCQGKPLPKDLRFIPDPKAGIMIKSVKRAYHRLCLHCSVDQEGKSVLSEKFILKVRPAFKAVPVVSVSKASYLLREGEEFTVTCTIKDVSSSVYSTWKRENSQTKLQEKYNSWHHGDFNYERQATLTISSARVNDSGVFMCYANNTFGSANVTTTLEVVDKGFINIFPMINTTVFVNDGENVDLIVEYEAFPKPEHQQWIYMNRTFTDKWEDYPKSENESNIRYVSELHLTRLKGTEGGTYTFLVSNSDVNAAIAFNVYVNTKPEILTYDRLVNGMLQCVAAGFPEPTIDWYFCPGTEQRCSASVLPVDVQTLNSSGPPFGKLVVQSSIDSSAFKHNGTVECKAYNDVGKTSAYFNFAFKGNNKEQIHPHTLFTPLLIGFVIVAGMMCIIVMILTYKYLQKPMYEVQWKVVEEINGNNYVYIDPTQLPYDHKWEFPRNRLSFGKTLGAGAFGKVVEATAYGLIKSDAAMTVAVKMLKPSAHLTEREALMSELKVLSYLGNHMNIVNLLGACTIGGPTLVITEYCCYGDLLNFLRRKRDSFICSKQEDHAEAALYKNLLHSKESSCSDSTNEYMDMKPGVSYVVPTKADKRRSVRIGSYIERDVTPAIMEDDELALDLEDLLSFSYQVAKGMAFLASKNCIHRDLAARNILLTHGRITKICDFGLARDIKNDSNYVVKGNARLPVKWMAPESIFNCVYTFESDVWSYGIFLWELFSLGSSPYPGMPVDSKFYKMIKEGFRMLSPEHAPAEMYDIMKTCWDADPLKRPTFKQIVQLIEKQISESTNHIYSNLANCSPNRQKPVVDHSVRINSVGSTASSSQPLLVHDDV
T1 sequence (Q13153 whole entry): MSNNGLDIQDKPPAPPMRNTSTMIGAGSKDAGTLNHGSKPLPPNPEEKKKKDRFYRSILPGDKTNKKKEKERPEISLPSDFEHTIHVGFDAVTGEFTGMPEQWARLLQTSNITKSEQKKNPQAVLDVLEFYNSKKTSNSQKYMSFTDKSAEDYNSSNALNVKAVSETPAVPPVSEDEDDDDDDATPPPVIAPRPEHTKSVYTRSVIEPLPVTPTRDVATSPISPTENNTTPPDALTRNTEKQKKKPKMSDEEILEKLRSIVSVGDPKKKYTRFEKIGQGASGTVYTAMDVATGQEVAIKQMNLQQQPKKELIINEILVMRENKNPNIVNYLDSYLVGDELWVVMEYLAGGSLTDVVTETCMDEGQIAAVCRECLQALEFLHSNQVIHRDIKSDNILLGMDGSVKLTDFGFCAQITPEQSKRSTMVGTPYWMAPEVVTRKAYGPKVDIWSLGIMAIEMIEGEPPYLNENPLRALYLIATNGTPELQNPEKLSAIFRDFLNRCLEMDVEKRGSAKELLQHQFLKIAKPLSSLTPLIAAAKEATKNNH

In general, IC50 refers to the concentration needed to halve the response being measured. Turning to `CNc1ncc2c(n1)N1CCN=C1C(c1cc(NC(=O)c3cc(C(F)(F)F)ccn3)ccc1C)=C2` [Compound 107, N-(4-methyl-3-(2-(methylamino)-8,9-dihydroimidazo[1′,2′:1,6]pyrido[2,3-d]pyrimidin-6-yl)phenyl)-4-(trifluoromethyl)picolinamide], the IC50 against HPK1 (MAP4K1) is 100 to 10000 nM; at c-Kit it was under 100 nM; on RET it was under 100 nM; on PAK1 [1], over 10000 nM.

The Papp A→B is how fast a substance crosses the layer from the apical side. A lower Papp A→B goes with slow passage. In general, Papp B→A refers to how fast a substance crosses the layer from the basolateral side. What is called efflux ratio is the permeability from basolateral to apical divided by that in the opposite direction, in the common usage. In turn, `Cc1ccc(NC(=O)c2cc(C(F)(F)F)ccn2)cc1C1=Cc2cnc(NC3CCOCC3)nc2N2CCN=C12` [Compound 115, N-(4-methyl-3-(2-((tetrahydro-2H-pyran-4-yl)amino)-8,9-dihydroimidazo[1′,2′:1,6]pyrido[2,3-d]pyrimidin-6-yl)phenyl)-4-(trifluoromethyl)picolinamide hydrogen chloride] displayed an IC50 against HPK1 (MAP4K1) of under 100 nM. The IC50 at c-Kit is under 100 nM. For the same compound, in the data set on P-glycoprotein (MDR1), the Papp A→B at 120 min is 22.8 ×10⁻⁶ cm/s, the Papp B→A at 120 min amounted to 36.9 ×10⁻⁶ cm/s and the efflux ratio at 120 min is 1.6.

`CNc1ncc2c(n1)N1CCN=C1C(c1cc(NC(=O)c3cc(C(F)(F)F)ccn3)ccc1Cl)=C2` [Compound 136, N-(4-chloro-3-(2-(methylamino)-8,9-dihydroimidazo[1′,2′:1,6]pyrido[2,3-d]pyrimidin-6-yl)phenyl)-4-(trifluoromethyl)picolinamide]: the IC50 against HPK1 (MAP4K1) was 100 to 10000 nM; on c-Kit it was under 100 nM; at RET it was under 100 nM.

Consider `Cc1ccc(Nc2ncc3c(n2)N2CCN=C2C(c2cc(NC(=O)c4cc(C(F)(F)F)ccn4)ccc2C)=C3)cn1` [Compound 208, N-(4-methyl-3-(2-((6-methylpyridin-3-yl)amino)-8,9-dihydroimidazo[1′,2′:1,6]pyrido[2,3-d]pyrimidin-6-yl)phenyl)-4-(trifluoromethyl)picolinamide], for which the IC50 against HPK1 (MAP4K1) and on RET was under 100 nM throughout.

As to `CNc1ncc2c(n1)N1CCN=C1C(c1ccc(NC(=O)C3(C(=O)Nc4ccc(F)cc4)CC3)cc1F)=C2` [Compound 340, N-(3-fluoro-4-(2-(methylamino)-8,9-dihydroimidazo[1′,2′:1,6]pyrido[2,3-d]pyrimidin-6-yl)phenyl)-N-(4-fluorophenyl)cyclopropane-1,1-dicarboxamide], the results for the IC50 against HPK1 (MAP4K1), on RET and at Axl were over 10000 nM, 100 to 10000 nM and over 10000 nM, respectively.

`CNc1ncc2c(n1)N1CCN=C1C(c1cc(NC(=O)C3(C(=O)Nc4ccc(F)cc4)CC3)ccc1F)=C2` [Compound 341, N-(4-fluoro-3-(2-(methylamino)-8,9-dihydroimidazo[1′,2′:1,6]pyrido[2,3-d]pyrimidin-6-yl)phenyl)-N-(4-fluorophenyl)cyclopropane-1,1-dicarboxamide]: the IC50 against HPK1 (MAP4K1) was under 100 nM; on RET, 100 to 10000 nM; on Axl it was over 10000 nM.

For the compound `CNc1ncc2cc(-c3ccc(-c4cccc(C)n4)cc3Cl)c(=O)n(C[C@H]3OC[C@H](N)CO3)c2n1` [Compound G-5555], the “inhibition of the PAK1 enzyme” value on PAK1 [2] is given as “potent PAK1 inhibitors”.
